The record followed here is patent US10653141B2, “Compositions and methods for attracting mosquitoes and repelling sand flies” (priority 2014, dated 2020).

For one test, the system named is mosquitoes. Kind of test: Laboratory and mesocosm trials of Vectrax bait blended with insecticide. Format: in vivo. The source says: Vectrax Bait Stations. To apply Vectrax within bait stations, the formulation—again, previously shaken or stirred—is loaded into a reservoir that provides the target insects with easy access to the attractant material, similar to a hummingbird feeder. […] In order to maintain maximum A&K efficiency, the toxicant component should be blended into the Vectrax attractant formulation as close to the time of application as possible. The attractant or A&K formulation may be loaded into the bait station in amounts ranging from a few grams to several liters, depending on the desired field life. If desired, a sponge or other absorbent material may be applied with the formulation, to facilitate landing by the mosquitoes. As with Vectrax-baited traps, Vectrax bait stations may be deployed singly, as a means to divert or attract and kill mosquitoes in sensitive environments (i.e., rural residences, backyards, recreational activity sites), or as part of a mosquito management strategy, placed at whatever locations and whatever density is thought to be required.

In the next test the test system is Phlebotomus dubosqui. Kind of test: Dual-choice bioassay, treated vs control chamber. Format: in vivo. The settings on record: 1,200 mg DEET. The source says: Through a series of dual-choice bioassays, a new combination of plant volatile semiochemicals was identified, which acts as a powerful repellent against two vector species of sand flies, Lutzomyia longipalpis and Phlebotomus dubosqui (vectors of leishmaniasis). […] Female sand flies repelled from host environments will be less likely to obtain a blood meal, reducing egg production, while aggregation by males, which typically occurs near hosts, will also be impeded by the presence of a repellent. Both of these interventions will lead to a decrease in reproductive success within the treated area, and over time, a reduction in sand fly population size.
Vectrax can also be deployed as a vehicle for the controlled release of repellent plant volatiles, to manage sand fly populations. […] This plant-based repellent formulation could reduce sand fly populations in a number of ways. Female sand flies repelled from host environments by Vectrax will be less likely to obtain a blood meal, reducing egg production, while lek formation by males, which typically occurs near hosts, will also be impeded by the presence of a repellent. Both of these interventions will lead to a decrease in reproductive success within the treated area, and over time, a reduction in sand fly population size.

With `CNC(=O)c1cc(C#N)cc(C)c1NC(=O)c1cc(Br)nn1-c1ncccc1Cl` [cyazypyr], the “efficacy as insecticide blended into Vectrax attract and kill bait” value in the test with mosquitoes is “quite effective”.
Turning to `CCN(CC)C(=O)c1cccc(C)c1` [DEET, N, N-diethyl-meta-toluamide], the “flies selecting the untreated over the treated chamber (repellency)” value in the test on Phlebotomus dubosqui came to 79%.
